Literature values in US20230049822A1, “COMPOSITIONS COMPRISING NICLOSAMIDE FOR USE IN TREATING CONDITIONS ASSOCIATED WITH AN ABNORMAL INFLAMMATORY RESPONSE” (First Wave Bio, Inc., priority 2020, published 2023).
Counter-ions that a name gives are not always drawn.

How the values were obtained:
[1] = system: pathogenic T cells isolated from IBD patients; conditions: see WO 2017/040864
[2] = system: murine models of IBD; conditions: see WO 2017/040864

SMILES	killing of pathogenic T cells [1]	solubility in acetone	solubility in ether, ethanol and chloroform	water solubility (at 20° C.) [µg/mL]	efficacy in murine models of IBD [2]	dissolves in distilled water (distilled water, 20° C.) [mg/L]
O=C(Nc1ccc([N+](=O)[O-])cc1Cl)c1cc(Cl)ccc1O [Niclosamide, 5-chloro-N-(2-chloro-4-nitrophenyl)-2-hydroxybenzamide]	kills pathogenic T cells	soluble	sparingly soluble	5 to 8	effective	
O=C(Nc1ccc([N+](=O)[O-])cc1Cl)c1cc(Cl)ccc1O [ethanolamine salt, 5-chloro-N-(2-chloro-4-nitrophenyl)-2-hydroxybenzamide with 2-aminoethanol (1:1)]						180 to 280
